Assay results reported in patent US20230404969A1, “COMPOSITIONS AND METHOD FOR EFFECTIVE MANAGEMENT OF PERITONITIS” (priority 2022, published 2023).

How the values were obtained:
[1] = test system: Enterococcus faecalis (Gram positive); assay: Bacterial translocation from the gut into organs: E. faecalis; type: in vivo; conditions: Withanone 2 mg/kg; positive/6 mice
Experimental: (§1) Peritoneal inflammation was induced by Zymosan A (Sigma Chemical) (Masashi et al. Zymosan, but Not Lipopolysaccharide, Triggers Severe and Progressive Peritoneal Injury Accompanied by complement Activation in a Rat Peritonitis Model) was prepared freshly in sterile, 0.9% w/v saline, and 0.5 ml was injected i.p. from day 0 to Day 5. The lymphocyte population in the peripheral blood was determined with a flow cytometer. Cells were phenotyped by flow cytometry with the following primary antibodies: CD4 (FITC) and CD8 (PE). Cells were gated broadly on all live lymphocyte cells, with only debris and multiple cell clusters being excluded. Analysis of mean fluorescence intensity was done and percentage cell population was evaluated. The test drugs were administered for 30 days after the induction of peritonitis. On 36th day the peritoneal cavity was lavaged with 1.5 ml saline, and after a 30-s gentle manual massage, 0.5 ml exudate was retrieved, centrifuged at 3000 g for 3 min, and frozen at 220° C. prior to cytokine and chemotactic-factor assessment.
Intestine serves as a barrier in preventing gut bacteria and/or endotoxin from spreading to organs and tissues. It is also known that bacterial translocation occurs in critically ill or immunocompromised patients, and the physical disruption of mucosal barrier in vivo rodent models seem to be a key factor Tor translocation (Deitch et al. Effect of hemorrhagic shock on bacterial translocation, intestinal morphology, and intestinal permeability in conventional and antibiotic-decontaminated rats; Critical Care Medicine; 1990 18(5)). Bacterial translocation from the gut into the peritoneal cavity and organs was analyzed. The mesenteric lymph nodes, liver, and spleen of mice, study group of 30, were removed using sterile instruments. The organs were then homogenized in 1 ml of sterile cooked meat broth and 50 μl of organ homogenate was spread on blood agar plates to detect aerobic bacteria and Eosin Methylene blue agar plates to detect specially for E. coli. These plates were then incubated at 37° C. for 2 days. […]

Procalcitonin = Procalcitonin in serum (ELISA), chronic zymosan peritonitis; type: in vivo, mouse; conditions: 2 mg/kg
Experimental: as §1
Procalcitonin is a precursor for calcitonin, a peptide hormone involved in calcium homeostasis. In response to pro-inflammatory stimulus of bacterial origin, the procalcitonin level rises. The blood was collected from retro-orbital plexus from the animals of all groups. The blood was allowed to stand for 2 hrs without addition of anti-coagulant. […]

IL-1β = assay: Extracellular in vivo IL-1β estimation in serum from treated mice after LPS injection (ELISA); conditions: 1 mg/kg p.o for 6 days, serum 90 mins after LPS injection, ↑ upregulation
Experimental: BALM male mice aged 6-8 weeks were maintained at 22±2° C. under 12/12 h light dark cycle. Mice received oral treatment of test drugs at graded doses (w/v) for 6 days, followed by intravenous injection of 1 mg/kg (Brieva et al. Immunoferon, a glycoconjugate of natural origin, inhibits LPS-induced TNF-α production and inflammatory responses. International Immunopharmacology (2001) 1, 1979-1987). Six mice were employed in each group and experiments were performed in triplicates. Blood was collected from retro-orbital plexus of the experimental animals and serum was separated. TNF-α, IL-1β production was evaluated by a commercial ELISA kit in serum from treated mice, 90 mins after LPS injection.

Myeloperoxidase (MPO) = assay: Myeloperoxidase in peritoneal exudate (ELISA), chronic zymosan peritonitis; type: in vivo, mouse; conditions: 2 mg/kg, day 36
Experimental: as §1
Circulating toxins can activate neutrophils or stimulate monocytes to release mediators contributing to the development of endotoxic shock. […] The protein concentrations were carried out by means of colorimetric measurement at 450 nm on an ELISA plate reader by interpolation from a standard curve. […]

CD4+ T cells = assay: Zymosan peritonitis chronic study: peripheral blood CD4+ T cell population (flow cytometry); type: in vivo, mouse; conditions: Withanone 2 mg/kg, day 36
Experimental: as §1, with “On 36th day the peritoneal cavity was lavaged with 1.5 ml saline, and after a 30-s gentle manual massage, 0.5 ml exudate was retrieved, centrifuged at 3000 g for 3 min, and frozen at 220° C. prior to cytokine and chemotactic-factor assessment.” left out
Flow cytometry enables the characterization of cells and subcellular organelles on the basis of size and granularity and a number of different parameters defined by fluorescent probes. […] Fluorochrome labelled monoclonal antibodies directed against co-receptors CD4 and CD8 were used to quantify the lymphocyte subsets in a multiparametric flow cytometric assay. […]

How did the “Bacterial translocation, Liver, E. faecalis” value [1] turn out when `CC1=C(C)C(=O)O[C@@H]([C@@H](C)[C@@]2(O)CC[C@H]3[C@@H]4[C@@H]5O[C@@H]5[C@@]5(O)CC=CC(=O)[C@]5(C)[C@H]4CC[C@@]32C)C1` [Withanone] was run?
The value was 1/6.

What about the “Bacterial translocation, Mesenteric Lymph Nodes, E. faecalis” value [1] of the same compound?
The value was 2/6.

And the “Bacterial translocation, Spleen, E. faecalis” value [1]?
The value was 0/6.

What about the “Decrease of expression level of procalcitonin compared to the Zymosan control” value (Procalcitonin) of the same compound?
Its value is about 60%.

And the “Percentage IL-1β inhibition compared to LPS control” value (IL-1β)?
Its value is 24.5%.

And the “Decrease of expression levels of MPO compared to the Zymosan control” value (Myeloperoxidase (MPO))?
The value was “at least 50%”.

And the “Inhibition of CD4+ compared to T cell population of Zymosan control” value (CD4+ T cells)?
The value was 46%.
